Our source for the ED50 values is US11584765B2 (priority 2017, dated 2023).

Some results are limits rather than exact numbers.

The test system of this experiment is C57BL/6 mice. The experiment is described as follows: animal or person. Format: in vivo. The settings on record: Mus musculus, sc, 0.5 h, s.c. administration, 30 min, 55° C. water, read-out: ED50 (mg/kg) at 30 min on C57BL/6 mice in Warm-water Tail-flick Test.
Take `CC(=O)Nc1ccc(CN2CC[C@@](CCc3ccccc3)([C@@H]3C=CCO3)C2)cc1` (single isomer, unassigned) [Compound 258]: the ED50 is less than 10 mg/kg.

Regarding `CC(=O)Nc1ccc(CN2CC[C@@](CCc3ccccc3)([C@H]3C=CCO3)C2)cc1` (single isomer, unassigned) [Compound 259], the ED50 is less than 10 mg/kg.

In the case of `CC(=O)Nc1ccc(CN2CC[C@](CCc3ccccc3)([C@@H]3C=CCO3)C2)cc1` (single isomer, unassigned) [Compound 260], the ED50 is more than 10 mg/kg.

As for `CC(=O)Nc1ccc(CN2CC[C@](CCc3ccccc3)([C@H]3C=CCO3)C2)cc1` (single isomer, unassigned) [Compound 261], the ED50 is more than 10 mg/kg.

Consider `C[C@H](O)[C@]1(CCc2cccs2)CCN(Cc2cccnc2)C1` (single isomer, unassigned) [Compound 422], for which the ED50 was less than 10 mg/kg.

Turning to `C[C@H](O)[C@@]1(CCc2cccs2)CCN(Cc2cccnc2)C1` (single isomer, unassigned) [Compound 423], the ED50 was less than 10 mg/kg.

Turning to `C[C@@H](O)[C@]1(CCc2cccs2)CCN(Cc2cccnc2)C1` (single isomer, unassigned) [Compound 424], the ED50 was less than 10 mg/kg.

Take `CCOC(C)[C@@]1(CCc2cccs2)CCN(C(C)(C)c2ccc(C)nc2)C1` (single isomer, unassigned) [Compound 425, 5-(2-((S)-3-((S or R)-1-ethoxyethyl)-3-(2-(thiophen-2-yl)ethyl)pyrrolidin-1-yl)propan-2-yl)-2-methylpyridine]: the ED50 was less than 10 mg/kg.

`CCOCC1(CCc2cccs2)CCN(Cc2ccc(NC(C)=O)cc2)C1` (stereo in doubt) [Compound 325, (R)-N-(4-((3-(ethoxymethyl)-3-(2-(thiophen-2-yl)ethyl)pyrrolidin-1-yl)methyl)phenyl)acetamide]: the ED50 is less than 10 mg/kg.

As for `CC(=O)Nc1ccc(CN2CCC(CCc3ccccc3)(c3ncc[nH]3)CC2)cc1` [Compound 1], the ED50 was more than 10 mg/kg.

On to `CC(=O)Nc1ccc(CN2CCC(CCc3ccccc3)(c3cccs3)CC2)cc1` [Compound 2], for which the ED50 was more than 10 mg/kg.

As to `CC(=O)Nc1ccc(CN2CCC(CCc3ccccc3)(c3ccsc3)CC2)cc1` [Compound 3], the ED50 was more than 10 mg/kg.

As for `CC(=O)Nc1ccc(CN2CCC(CCc3ccccc3)(c3ccccc3)CC2)cc1` [Compound 4], the ED50 was more than 10 mg/kg.

As for `CC(=O)Nc1ccc(CN2CCC(CCc3ccccc3)(c3ccccn3)CC2)cc1` [Compound 5], the ED50 is less than 10 mg/kg.

For `CC(=O)Nc1ccc(CN2CCC(CCc3ccccc3)(c3cccnc3)CC2)cc1` [Compound 6], the ED50 is more than 10 mg/kg.

On to `CC(=O)Nc1ccc(CN2CCC(CCc3ccccc3)(c3ccncc3)CC2)cc1` [Compound 7], for which the ED50 was more than 10 mg/kg.

Turning to `CC(=O)Nc1ccc(CN2CCC(CCc3ccccc3)(c3nncs3)CC2)cc1` [Compound 8], the ED50 was more than 10 mg/kg.

In the case of `CC(=O)Nc1ccc(CN2CCC(CCc3ccccc3)(c3nnco3)CC2)cc1` [Compound 9], the ED50 was more than 10 mg/kg.

Take `CC(=O)Nc1ccc(CN2CCC(CCc3ccccc3)(c3ncon3)CC2)cc1` [Compound 10]: the ED50 is more than 10 mg/kg.

Consider `CC(=O)Nc1ccc(CN2CCC(CCc3ccccc3)(c3noc(C)n3)CC2)cc1` [Compound 11], for which the ED50 is more than 10 mg/kg.

For `CC(=O)Nc1ccc(CN2CCC(CCc3ccccc3)(c3nnc(C)o3)CC2)cc1` [Compound 12, N-(4-((4-(5-methyl-1,3,4-oxadiazol-2-yl)-4-phenethylpiperidin-1-yl)methyl)phenyl)acetamide], the ED50 is more than 10 mg/kg.

On to `CC(=O)Nc1ccc(CN2CCC(CCc3ccccc3)(c3nnc(C)s3)CC2)cc1` [Compound 13, N-(4-((4-(5-methyl-1,3,4-thiadiazol-2-yl)-4-phenethylpiperidin-1-yl)methyl)phenyl)acetamide], for which the ED50 is more than 10 mg/kg.

Turning to `CC(=O)Nc1ccc(CN2CCC(Cc3ccccc3)(c3ccccn3)CC2)cc1` [Compound 14, N-(4-((4-benzyl-4-(pyridin-2-yl)piperidin-1-yl)methyl)phenyl)acetamide], the ED50 was more than 10 mg/kg.
